# Laboratory results as given in US10335400B2, “Treatment of tauopathies with mGluR5 antagonists” (priority 2014, dated 2019).
# Columns and labels:
# mGluR5-PP2A complex = target: T1, mGluR5-PP2A complex (Mus musculus, UniProt Q3UVX5); experiment: Coimmunoprecipitation of PP2Ac with mGluR5 in primary neurons; assay type: cell-based; details: primary neuronal cultures, 1 mM BMAA
# T1 construct: endogenous in cells; host or cells: mouse primary hippocampal neuronal cultures
# Method: Mouse hippocampal cell proteins were prepared with low-stringency lysis buffer [50 mM Hepes (pH 7.4), 10% (vol/vol) glycerol, 1.5 mM MgCl2, 5 mM NaF, 1 mM Na3VO4, 1 mM EDTA, 1 mM EGTA, 1% Nonidet P-40, 5 mM AEBSF, 10 μg/mL aprotinin, leupeptin, pepstatin] and were homogenized by several freeze-thaw cycles followed by water bath sonication. The homogenate was centrifuged at 14,000×g at 4° C. for 15 min. For transfection experiments with vector (DsRed) and with DsRed-PP2A catalytic subunit (PP2Ac), primary neurons were processed in a similar manner. The supernatants then were used for immunoprecipitation with mouse anti-PP2A (1D6; Millipore) followed by incubation with protein G-Sepharose (Thermo Scientific). The Western blots of immunoprecipitates were probed with rabbit anti-mGluR5 (Millipore) and rabbit anti-PP2Ac [R123d] (FIG. 55).
# tau = experiment: i.c.v. infusion of BMAA in neonatal rats: hyperphosphorylation of tau; assay type: in vivo, rat; details: i.c.v. BMAA 1.3 μmol
# Method: (§1) Wistar rats were bred and maintained under standard environmental conditions (12-h light/dark cycles, 22° C.) and were allowed free access to food and water. The animal experiments were carried out in strict compliance with protocols approved by the Animal Welfare Committee of New York State Institute for Basic Research in Developmental Disabilities. On postnatal d 2 (PND2), pups were individually cryo-anesthetized on ice, and 2 μL of 1.3 μmol BMAA in PBS was injected into lateral ventricle using a 10-μL Hamilton syringe (Hamilton Syringe Co.). Control animals were injected with PBS in an identical manner. After infusion of BMAA, rats were killed within 1, 24, 48, 72, or 96 h, and the brains were used for Western blots and PP2A activity assays.
# Protein was fractionated by 10% SDS/PAGE, transferred to PVDF membrane, and then blocked with 5% skim milk for 1 h at room temperature. The membrane was probed with anti-IPP2A (5G6, 1:1, 500) (7), anti-I2P2A (10E7, 1:1, 600) (7), anti-tau ˜92e; 1:5,000) (8), anti-tau (R134d; 1:5 000) (9), anti-tau pSer^262/^356 (12E8; 1:500) (10, anti-tau pSer^199, anti-tau pThr^205, anti-tau pThr^212, and pSer^396 (1:1,000) (Biosource), anti-GAPDH (1:2,000) (Santa Cruz Biotechnology), anti-PP2Ac (1:10 000) (BD Transduction Lab), anti pY^307-PP2A and anti-DML^309-PP2A (1:1,000) (Millipore), anti-GSK-3(α/β), anti-pS^9-GSK-3 β, anti-ERK1/2, anti-pT^202/Y^204-ERK1/2, anti-MEK1/2, anti-p9^17/221-MEK1/2, anti-CAMKII, anti-pT^286-CAMKII, anti-p70 S6 kinase, anti-pT^389-p70 S6 kinase, anti-SAPK/JNK, and anti-pT^183/Y^185-SAPK/JNK (1:1,000) (Cell Signaling Technology). The membrane then was incubated with HRP-conjugated secondary antibody (Jackson ImmunoResearch). The protein bands were detected with the enhanced chemiluminescence reagents (Thermo Scientific). Band intensity was measured by Multi-Gauge V3 software (Fuji Photo Film).
# PP2A = experiment: i.c.v. infusion of BMAA in neonatal rats: PP2Ac Tyr307 phosphorylation and PP2A activity; assay type: in vivo, rat; details: i.c.v. BMAA 1.3 μmol
# Method: as §1
# PP2A activity was assayed with homogenate of rat brain slices using the phosphatase ELISA described previously (5). Briefly, 96-well plates were precoated with a 17-aa phosphopeptide corresponding to tau amino acids 194-207 in which […] was replaced with phosphoserine and to which KKK were added at the C terminus (coating buffer, 35 mM NaHCO3). After overnight blocking with a protein-free blocking solution (Pierce), the enzymatic reaction was performed by adding 2 μg of cell lysate protein in 60 μL of reaction buffer [50 mM TrisHCl (pH 7.0), 2 mM MnCl2, 0.1 mg/mL BSA, 20 mM (β-mercaptoethanol] at 30° C. for 30 min (in the presence or absence of 15 nM of okadaic acid) in a moist chamber. The reaction was stopped by adding 150 μL of Pierce blocking solution containing 50 mM NaF, followed by an overnight incubation with monoclonal antibody Tau-1, which recognizes tau unphosphorylated at Ser^198, Ser^199, and Ser^202. HRP-conjugated secondary antibody treatment was for 60 min at room temperature. Finally 75 μL of 3,3′,5,5′-Tetramethylbenzidine substrate reagent (Sigma) was added, and the colorimetric development was measured using a microtiter plate reader at a wavelength of 650 nm.
# Protein was fractionated by 10% SDS/PAGE, transferred to PVDF membrane, and then blocked with 5% skim milk for 1 h at room temperature. […] The protein bands were detected with the enhanced chemiluminescence reagents (Thermo Scientific). Band intensity was measured by Multi-Gauge V3 software (Fuji Photo Film).
# mixed cortical cultures = details: injury induced by amyloid-β, 1-methyl-4-phenylpyridinium or methylmercury; cited from earlier work
# T1 sequence (Q3UVX5 19-1203, one chain of several): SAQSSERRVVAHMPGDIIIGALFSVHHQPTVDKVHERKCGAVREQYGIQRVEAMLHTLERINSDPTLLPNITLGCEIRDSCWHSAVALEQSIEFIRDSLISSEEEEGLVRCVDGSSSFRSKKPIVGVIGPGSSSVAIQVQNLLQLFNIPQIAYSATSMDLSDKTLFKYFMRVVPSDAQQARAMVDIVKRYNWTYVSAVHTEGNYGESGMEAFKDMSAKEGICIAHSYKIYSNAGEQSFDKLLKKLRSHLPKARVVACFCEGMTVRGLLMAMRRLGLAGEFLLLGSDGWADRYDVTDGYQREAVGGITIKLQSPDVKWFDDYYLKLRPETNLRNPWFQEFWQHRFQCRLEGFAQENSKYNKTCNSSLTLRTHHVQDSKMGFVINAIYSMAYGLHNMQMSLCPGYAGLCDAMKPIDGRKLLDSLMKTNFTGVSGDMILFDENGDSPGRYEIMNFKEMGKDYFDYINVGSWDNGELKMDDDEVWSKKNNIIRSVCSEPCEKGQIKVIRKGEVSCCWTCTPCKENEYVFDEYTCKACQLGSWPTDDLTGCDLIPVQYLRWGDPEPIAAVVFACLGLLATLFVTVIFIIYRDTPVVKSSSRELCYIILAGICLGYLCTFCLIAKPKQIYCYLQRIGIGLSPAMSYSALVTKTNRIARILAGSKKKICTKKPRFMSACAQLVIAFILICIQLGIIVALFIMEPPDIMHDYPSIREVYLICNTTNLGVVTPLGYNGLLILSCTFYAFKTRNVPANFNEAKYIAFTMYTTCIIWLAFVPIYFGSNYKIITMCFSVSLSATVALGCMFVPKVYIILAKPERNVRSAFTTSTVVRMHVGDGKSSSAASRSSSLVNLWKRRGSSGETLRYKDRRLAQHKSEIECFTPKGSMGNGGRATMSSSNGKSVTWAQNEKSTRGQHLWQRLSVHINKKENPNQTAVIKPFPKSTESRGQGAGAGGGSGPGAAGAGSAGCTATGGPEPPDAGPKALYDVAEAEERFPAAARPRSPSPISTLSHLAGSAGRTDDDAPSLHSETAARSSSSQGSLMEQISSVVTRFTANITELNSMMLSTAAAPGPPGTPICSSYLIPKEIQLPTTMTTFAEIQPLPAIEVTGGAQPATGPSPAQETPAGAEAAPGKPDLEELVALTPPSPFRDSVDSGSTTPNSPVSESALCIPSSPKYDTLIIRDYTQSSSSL
smiles,measurement,setting,value
"CNC[C@H](N)C(=O)O [BMAA, β-N-methylamino-L-alanine]",association of PP2Ac with mGluR5,mGluR5-PP2A complex,led to the dissociation
same,time of peak hyperphosphorylation of tau at Ser262/356,tau,24 to 48 h
same,time of peak hyperphosphorylation of tau at Thr212,tau,24 to 48 h
same,time of peak phosphorylation of tau at Ser199,tau,72 to 96 h
same,time of peak phosphorylation of tau at Ser396,tau,72 to 96 h
same,time of peak phosphorylation of tau at Thr205,tau,72 to 96 h
same,PP2A activity in rat brain,PP2A,decreased
same,time at which the decrease in PP2A activity was most significant,PP2A,48 h
same,time by which pTyr307-PP2Ac decreased to a normal level,PP2A,72-96 h
same,level of phosphorylation of PP2Ac at Tyr307 in rat brains,PP2A; for 24-48 h,increased markedly
same,BMAA concentration potentiating neuronal injury,mixed cortical cultures,10 µM
